Assay results reported in publication PMC10363080, “Modulatory Effect of Pyrus pyrifolia Fruit and its Phenolics on Key Enzymes against Metabolic Syndrome: Bioassay-Guided Approach, HPLC Analysis, and In Silico Study” (Plant Foods for Human Nutrition (Dordrecht, Netherlands), 2023).
Where two headings read alike, the source gives them in different places.

Legend:
[1] = biological target: T1, inducible nitric oxide synthase (iNOS) (Mus musculus, UniProt P29477); experiment: iNOS inhibitory activity in LPS-induced RAW264.7 macrophages (nitrite, Griess reagent); assay type: cell-based; conditions: read-out: Inhibition (IC50) iNOS (converted)
T1 construct: endogenous in cells; host or cells: RAW264.7 mouse macrophages, LPS-induced
T1 sequence (P29477 1-1144): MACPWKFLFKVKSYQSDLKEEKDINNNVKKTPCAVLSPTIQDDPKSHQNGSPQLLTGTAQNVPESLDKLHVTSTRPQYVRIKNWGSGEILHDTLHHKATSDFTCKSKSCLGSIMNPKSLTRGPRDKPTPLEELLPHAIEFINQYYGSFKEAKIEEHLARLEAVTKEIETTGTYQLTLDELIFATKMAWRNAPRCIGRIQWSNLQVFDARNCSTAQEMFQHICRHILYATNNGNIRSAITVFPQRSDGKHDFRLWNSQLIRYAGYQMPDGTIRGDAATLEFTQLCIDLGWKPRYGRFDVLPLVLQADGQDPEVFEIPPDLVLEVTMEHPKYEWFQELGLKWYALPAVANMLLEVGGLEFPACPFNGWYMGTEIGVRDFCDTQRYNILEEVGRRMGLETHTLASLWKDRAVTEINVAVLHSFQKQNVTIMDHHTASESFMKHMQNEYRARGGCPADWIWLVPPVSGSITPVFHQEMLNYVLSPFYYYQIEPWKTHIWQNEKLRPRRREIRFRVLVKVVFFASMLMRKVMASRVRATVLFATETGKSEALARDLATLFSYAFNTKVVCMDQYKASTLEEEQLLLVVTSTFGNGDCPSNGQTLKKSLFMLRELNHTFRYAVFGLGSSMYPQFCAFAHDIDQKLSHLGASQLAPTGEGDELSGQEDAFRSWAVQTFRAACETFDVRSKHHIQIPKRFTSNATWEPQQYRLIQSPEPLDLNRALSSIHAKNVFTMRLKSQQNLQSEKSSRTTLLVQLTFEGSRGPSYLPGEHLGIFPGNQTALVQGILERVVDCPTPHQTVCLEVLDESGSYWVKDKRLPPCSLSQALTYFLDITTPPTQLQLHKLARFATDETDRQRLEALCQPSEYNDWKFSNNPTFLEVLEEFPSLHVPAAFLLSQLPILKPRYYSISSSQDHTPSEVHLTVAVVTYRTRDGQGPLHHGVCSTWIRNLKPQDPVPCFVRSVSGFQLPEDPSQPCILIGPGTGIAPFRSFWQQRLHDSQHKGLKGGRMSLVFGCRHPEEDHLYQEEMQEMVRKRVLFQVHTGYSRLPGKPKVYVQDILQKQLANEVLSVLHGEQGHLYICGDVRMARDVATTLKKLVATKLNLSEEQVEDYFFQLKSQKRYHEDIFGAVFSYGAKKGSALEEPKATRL
Protocol: (§1) Phenolic acids and flavonoids used in HPLC analysis as well as all other reagents for biological investigations were obtained from Sigma Chemical Company […]
(§2) Inhibitory activity against key enzymes related to metabolic syndrome (MS) All assays were performed in 96-well plates. Stock solutions of the extract (100 mg/mL), fractions (100 mg/mL), and isolated compounds (1000 µM) were prepared. Tested samples that exceeded […]
(§3) inhibitory concentration (IC50). The percentage of enzyme inhibition was calculated according to […]
(§4) % Inhibition = (A−B) − (C−D) x 100 […]
Inducible nitric oxide synthase (iNOS) inhibitory activity iNOS inhibitory activity was determined in mouse macrophage cells (RAW264.7, Shanghai BOGO Industrial Co., Ltd., China) according to a previously designed method. Phenol red-free RPMI medium from Thermo-Fisher was used to develop macrophages. It was supplemented with 10% bovine calf serum, 100 U/mL of penicillin G sodium from Sigma-Aldrich, and 100 µg/mL of streptomycin (Sigma-Aldrich). Cells (50,000/well) were seeded onto 96-well plates, which were […]

[2] = biological target: T2, Recombinant renin (Homo sapiens, UniProt P00797); experiment: Renin inhibitory activity (renin-inhibitor screening assay kit); assay type: biochemical; conditions: read-out: Inhibition (IC50) Renin (converted)
T2 construct: purchased BPS Bioscince
T2 sequence (P00797 67-406): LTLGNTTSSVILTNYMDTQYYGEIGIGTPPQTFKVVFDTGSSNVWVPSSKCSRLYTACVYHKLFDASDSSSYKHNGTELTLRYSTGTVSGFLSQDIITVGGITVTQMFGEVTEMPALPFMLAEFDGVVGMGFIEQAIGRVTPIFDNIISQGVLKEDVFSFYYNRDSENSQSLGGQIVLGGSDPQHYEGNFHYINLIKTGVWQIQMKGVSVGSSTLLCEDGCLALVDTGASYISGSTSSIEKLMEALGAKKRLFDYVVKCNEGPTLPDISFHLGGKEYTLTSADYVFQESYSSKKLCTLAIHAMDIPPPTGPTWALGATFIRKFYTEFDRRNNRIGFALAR
Protocol: all of analytical grade. […]
as §1, §2, §3, §4
Renin inhibitory activity
The renin inhibitory activity was examined according to a previously described method using renin-inhibitor screening assay kit (BPS Bioscince, San Diego, CA, USA) and quinapril as a reference drug. Recombinant renin enzyme (50 μL) was dissolved in 50-mM Tris-HCl buffer (pH 8.0) and 100-mM NaCl (assay buffer) and stored at –80°C for further analysis. Twenty μL of renin substrate (A500 μM in DMSO), 150 μL of assay buffer, and 10 μL of each sample were used to prepare test solutions (10mg/ml in methanol). The blank samples were made using 10 μL of the sample, 20 μL of the substrate, and 160 μL of assay buffer. The positive control samples were created using 10 μL of methanol, 20 μL of substrate, and 150 μL of assay buffer. The positive control and tested samples were combined with 10 μL of the renin solution for the assay in order to catalyze the reaction. After that, the reaction mixture was incubated for 45 minutes at 37 °C.
The fluorescence generated at the 340 nm excitation and 490 nm emission wavelengths was measured using a microplate reader.
Xanthine oxidase (XO) inhibitory activity
Xanthine oxidase (XO) inhibitory potential was carried out according to a previous designed procedure using xanthine oxidase (XO, EC 1.17.3.2; Biovision, USA). Allopurinol was applied as a reference drug. Immediately prior to use, a mixture was made up of 50 μL of sample solution, 35 μL of phosphate buffer (70 mM, pH = 7.5), and 30 μL of new enzyme solution (0.01 units/mL in the same buffer). The reaction was started by adding 60 μL of the substrate solution (150 μM xanthine in the same buffer) following a pre-incubation at 25 °C for 15 minutes. After that, the mixture was incubated at 25 °C for 30 min. After adding 25 μL of 1 M HCl to terminate the reaction, the absorbance was measured at 290 nm with a microplate reader as previously

[3] = Ferric reducing antioxidant power (FRAP) assay; parameters: FRAP AA (%) antioxidant activity percentage: concentration or dose not given beside the values; conditions: for FRAP antioxidant activity: Trolox equivalent per gram of sample, mean ± SD, n=3; for FRAP AA (%) antioxidant activity percentage: compared to ascorbic acid (=100)
Protocol: (§5) all of analytical grade. An electrothermal 9100 (UK) was used for the determination of melting points (uncorrected). A Jenway model 6800 spectrophotometer was utilized for recording UV spectra. A Tecan, microplate reader, ((Infinite F50, Switzerland)) was used to measure the absorbances. A Bruker NMR system was used for 1H-NMR (400 MHz) and 13C-NMR (100 MHz).
(§6) The NMR spectra were determined in CD3OH and DMSO-d6. Chemical shifts are given in δ (ppm) relative to the internal standard TMS. Phenolic acids and flavonoids used in HPLC analysis as well as all other reagents for biological investigations were obtained from Sigma Chemical Company […]
(§7) Determination of the antioxidant activity
(§8) 2,2`-Azino-bis(3-ethylbenzothiazoline-6-sulfonic acid) (ABTS), ferric reducing antioxidant power (FRAP), and oxygen radical absorbance capacity (ORAC) assays were performed according to the previously published procedures. Ascorbic acid was used as a reference antioxidant […]
drug. […]

[4] = Oxygen radical absorbance capacity (ORAC) assay; conditions: for ORAC antioxidant activity: Trolox equivalent per gram of sample, mean ± SD, n=3; for ORAC AA (%) antioxidant activity percentage: compared to ascorbic acid (=100)
Protocol: as §5, §6, §7, §8
drug. […]

[5] = ABTS radical scavenging antioxidant assay; parameters: ABTS AA (%) antioxidant activity percentage: concentration or dose not given beside the values; conditions: for ABTS antioxidant activity: Trolox equivalent per gram of sample, mean ± SD, n=3; for ABTS AA (%) antioxidant activity percentage: compared to ascorbic acid (=100)
Protocol: as §5, §6, §7, §8
drug. […]

| IC50 ([1]; extract and fractions, Table S2, RAW264.7 cells) | IC50 ([1]; isolated compounds, Table S7, RAW264.7 cells) | IC50 ([2]; isolated compounds, Table S7) | IC50 ([2]; extract and fractions, Table S2) | SMILES | FRAP antioxidant activity [3] | FRAP antioxidant activity ([3]; listed as quercetin) | FRAP AA (%) antioxidant activity percentage [3] | ORAC antioxidant activity [4] | ORAC antioxidant activity ([4]; listed as quercetin) | ORAC AA (%) antioxidant activity percentage [4] | ABTS antioxidant activity [5] | ABTS antioxidant activity ([5]; listed as quercetin) | ABTS AA (%) antioxidant activity percentage [5] |
| --- | --- | --- | --- | --- | --- | --- | --- | --- | --- | --- | --- | --- | --- |
| 4.51 µM | 4.51 µM | – | – | C=C1C(=O)O[C@H]2[C@H]1CC/C(C)=C/CC[C@@]1(C)O[C@@H]21 [parthenolide, reference compound] | – | – | – | – | – | – | – | – | – |
| – | – | 21900 ± 250 nM | – | O=c1c(O)c(-c2ccc(O)c(O)c2)oc2cc(O)cc(O)c12 [P5, quercetin] | 139.03±0.65 μM TE/g | 139.03 ± 0.65 μM TE/g | 89.57% | 358.95±0.78 μM TE/g | 358.95 ± 0.78 μM TE/g | 91.99% | 244.01±0.29 μM TE/g | 244.01 ± 0.29 μM TE/g | 84.79% |
| – | – | 45 nM | 45.6 nM | CCOC(=O)[C@H](CCc1ccccc1)N[C@@H](C)C(=O)N1Cc2ccccc2C[C@H]1C(=O)O [quinapril, reference compound] | – | – | – | – | – | – | – | – | – |
| – | – | – | – | O=C1O[C@H]([C@@H](O)CO)C(O)=C1O [Ascorbic acid, reference compound] | 155.22±0.03 μM TE/g | – | 100% | 390.21±0.99 μM TE/g | – | 100% | 287.78±1.01 μM TE/g | – | 100% |
